Experimental findings from patent US20060183759A1, “Tissue transglutaminase inhibitors” (priority 2004, published 2006) are described below.

Molecules are shown by their SMILES. Counter-ions that a name gives are not always drawn. Like-named read-outs stand apart in the source and are kept apart here.

In test [1] the target is T1, transglutaminase 2 (TGase 2) (Homo sapiens, UniProt P21980).
T1 sequence (P21980 1-687): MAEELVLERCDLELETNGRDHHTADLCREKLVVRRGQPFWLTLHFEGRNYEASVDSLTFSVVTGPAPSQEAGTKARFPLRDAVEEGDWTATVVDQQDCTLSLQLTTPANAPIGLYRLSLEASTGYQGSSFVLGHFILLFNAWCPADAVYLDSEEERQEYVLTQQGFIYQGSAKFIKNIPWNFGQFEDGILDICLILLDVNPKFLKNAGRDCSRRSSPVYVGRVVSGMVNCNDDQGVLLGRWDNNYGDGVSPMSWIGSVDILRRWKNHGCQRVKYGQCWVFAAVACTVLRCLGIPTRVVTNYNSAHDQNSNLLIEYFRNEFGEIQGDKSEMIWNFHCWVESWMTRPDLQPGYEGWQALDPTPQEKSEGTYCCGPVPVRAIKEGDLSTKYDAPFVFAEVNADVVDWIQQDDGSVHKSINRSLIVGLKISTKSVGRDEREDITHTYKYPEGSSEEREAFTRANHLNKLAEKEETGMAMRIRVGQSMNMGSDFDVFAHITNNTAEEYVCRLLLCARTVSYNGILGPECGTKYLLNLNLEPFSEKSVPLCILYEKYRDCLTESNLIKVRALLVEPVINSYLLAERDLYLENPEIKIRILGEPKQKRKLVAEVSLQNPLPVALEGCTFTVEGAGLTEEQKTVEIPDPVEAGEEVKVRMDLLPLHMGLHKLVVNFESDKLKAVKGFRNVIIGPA
Put plainly: TGase 2 transpeptidase fluorescence assay: incorporation of KXD into N,N-dimethylated-casein (Std and FPC formats). Conditions: for TGase 2 inhibitory activity, SAR comment in words (relative to parent compound): qualitative comparison. The test is classed as biochemical. As to the method: Transpeptidase activity was monitored as the increase in fluorescence intensity (FI) that accompanies incorporation of the dansylated Lys derivative, α-N-Boc-Lys-CH2-CH2-dansyl (KXD), into the protein substrate, N,N-dimethylated-casein (NMC).
Therefore, a method was used in which full progress curves (FPC) were recorded for the TGase-catalyzed reaction of KXD with NMC in the presence of inhibitor (Table 1-4). Reactions were initiated by enzyme addition to a solution of substrate and inhibitor. […] From such progress curves, IC50 values were calculated using the following equation: IC50=[I]/{(vc/vss)−1}. Progress curves recorded at several inhibitor concentrations were used to determine FPC IC50 values (Table 1-4).

Test [2] has as its target T1, transglutaminase 2 (TGase 2). The test is described as above. The test is classed as biochemical. Conditions: standard format (Std): reactions terminated after 60 min, FI recorded, four-parameter fit.
The mark [3] stands for this setting: full progress curves (FPC), IC50=[I]/{(vc/vss)−1}, from steady-state velocity, read-out: IC50 (μM, FPC).
Where [4] appears, read: summary of FPC values, read-out: FPC IC50 values.

For `NNC(=O)CSc1nc2scc(-c3ccccc3)c2c(=O)n1-c1ccccc1` [986-01, (4-Oxo-3,5-diphenyl-3,4-dihydro-thieno[2,3-d]pyrimidin-2-ylsulfanyl)acetic acid hydrazide], the IC50 in test [1] (setting [3]) amounted to 0.25 µM; in test [2] it was 0.8 µM.
As to `NNC(=O)CSc1nc2ccccc2c(=O)n1-c1ccccc1` [986-03, (4-Oxo-3-phenyl-3,4-dihydroquinazolin-2-ylsulfanyl)acetic acid hydrazide], the “TGase 2 inhibitory activity, SAR comment in words (relative to parent compound)” value in test [1] was “decreased activity”. Moreover, half-maximal inhibition in test [2] (IC50) was put at 18 µM.
Take `NNC(=O)CSc1nc2scc(-c3ccccc3)c2c(=O)n1-c1ccc(F)cc1` [986-07, [3-(4-Fluorophenyl)-4-oxo-5-phenyl-3,4-dihydrothieno[2,3-d]pyrimidin-2-ylsulfanyl]acetic acid hydrazide]: the results for the IC50 in test [1] (setting [3]) and in test [2] were 0.32 µM and 1.3 µM, respectively.
The corresponding values for `NNC(=O)CSc1nc2scc(-c3ccc(F)cc3)c2c(=O)n1-c1ccccc1` [986-08, [5-(4-Fluorophenyl)-4-oxo-3-phenyl-3,4-dihydrothieno[2,3-d]pyrimidin-2-ylsulfanyl]acetic acid hydrazide] are 0.29 µM and 0.8 µM.
The corresponding values for `NNC(=O)CSc1nc2scc(-c3ccc(F)cc3)c2c(=O)n1-c1ccc(F)cc1` [986-09, [3,5-Bis-(4-fluorophenyl)-4-oxo-3,4-dihydrothieno[2,3-d]pyrimidin-2-ylsulfanyl]acetic acid hydrazide] are 0.67 µM and 1.5 µM.
Take `Cc1sc2nc(SCC(=O)NN)n(-c3ccccc3)c(=O)c2c1-c1ccccc1` [986-13, (6-Methyl-4-oxo-3,5-diphenyl-3,4-dihydrothieno[2,3-d]pyrimidin-2-ylsulfanyl)acetic acid hydrazide]: the IC50 is 0.16 µM in test [1] (setting [3]), under 0.16 µM in test [1] (setting [4]) and 1.5 µM in test [2]. For the same compound, the “TGase 2 inhibitory activity, SAR comment in words (relative to parent compound)” value in test [1] is reported as “increased activity”.
As to `NNC(=O)CSc1nc2scc(-c3ccccc3)c2c(=O)n1-c1ccccc1F` [986-18, [3-(2-Fluorophenyl)-4-oxo-5-phenyl-3,4-dihydrothieno[2,3-d]pyrimidin-2-ylsulfanyl]acetic acid hydrazide], the results for the IC50 in test [1] (setting [3]) and in test [2] were 0.16 µM and 0.5 µM, respectively.
Take `NNC(=O)CSc1nc2scc(-c3ccccc3)c2c(=O)n1-c1cccc(F)c1` [986-19, [3-(3-Fluorophenyl)-4-oxo-5-phenyl-3,4-dihydrothieno[2,3-d]pyrimidin-2-ylsulfanyl]acetic acid hydrazide]: the half-inhibitory concentration (IC50) is 0.18 µM in test [1] (setting [3]), under 0.16 µM in test [1] (setting [4]) and 0.25 µM in test [2].
Take `COc1cccc(-n2c(SCC(=O)NN)nc3scc(-c4ccccc4)c3c2=O)c1` [986-21, [3-(3-Methoxyphenyl)-4-oxo-5-phenyl-3,4-dihydrothieno[2,3-d]pyrimidin-2-ylsulfanyl]acetic acid hydrazide]: the IC50 in test [1] (setting [3]) amounted to 0.47 µM; in test [2] it was 0.82 µM.
Take `Cc1sc2nc(SCCC(=O)NN)n(-c3ccccc3)c(=O)c2c1-c1ccccc1` [986-22, 3-(6-Methyl-4-oxo-3,5-diphenyl-3,4-dihydrothieno[2,3-d]pyrimidin-2-ylsulfanyl)propionic acid hydrazide]: the “TGase 2 inhibitory activity, SAR comment in words (relative to parent compound)” value in test [1] is reported as “diminished activity”. The compound also came in with an IC50 in test [2] of 1.3 µM.
With `NNC(=O)CSc1nc2scc(-c3ccccc3)c2c(=O)n1-c1cc(F)ccc1F` [986-26, [3-(2,5-Difluorophenyl)-4-oxo-5-phenyl-3,4-dihydrothieno[2,3-d]pyrimidin-2-ylsulfanyl]acetic acid hydrazide], the IC50 is 0.23 µM in test [1] (setting [3]) and 0.59 µM in test [2].
The corresponding values for `NNC(=O)CSc1nc2scc(-c3ccccc3)c2c(=O)n1-c1cc(F)cc(F)c1` [986-27, [3-(3,5-Difluorophenyl)-4-oxo-5-phenyl-3,4-dihydrothieno[2,3-d]pyrimidin-2-ylsulfanyl]acetic acid hydrazide] are 0.22 µM and 0.48 µM.
On to `NNC(=O)CSc1nc2sc(-c3ccccc3)cc2c(=O)n1-c1ccccc1` [986-29, (4-Oxo-3,6-diphenyl-3,4-dihydrothieno[2,3-d]pyrimidin-2-ylsulfanyl)acetic acid hydrazide], for which the “TGase 2 inhibitory activity, SAR comment in words (relative to parent compound)” value in test [1] is listed as “loss of inhibitory activity”. The compound further showed an IC50 in test [2] of over 20 µM.
Take `NNC(=O)COc1nc2scc(-c3ccccc3)c2c(=O)n1-c1ccccc1` [986-30, (4-Oxo-3,5-diphenyl-3,4-dihydrothieno[2,3-d]pyrimidin-2-yloxy)acetic acid hydrazide]: the “TGase 2 inhibitory activity, SAR comment in words (relative to parent compound)” value in test [1] is listed as “decreased activity”. In test [2], the IC50 amounted to 4.5 µM.
On to `CCCN1CCc2c(sc3nc(SCC(=O)NN)n(-c4cccc(F)c4)c(=O)c23)C1` [986-49, [3-(3-Fluorophenyl)-4-oxo-7-propyl-3,4,5,6,7,8-hexahydro-9-thia-1,3,7-triazafluoren-2-ylsulfanyl]acetic acid hydrazide], for which, in test [2], half-maximal inhibition (IC50) was put at 6 µM.
The same measure, in the same setting: with `CN(N)C(=O)CSc1nc2scc(-c3ccc(F)cc3)c2c(=O)n1-c1ccc(F)cc1` [986-50, [3,5-Bis-(4-fluorophenyl)-4-oxo-3,4-dihydrothieno[2,3-d]pyrimidin-2-ylsulfanyl]acetic acid N-methylhydrazide] the figure was over 20 µM; with `CNNC(=O)CSc1nc2scc(-c3ccc(F)cc3)c2c(=O)n1-c1ccc(F)cc1` [986-51, [3,5-Bis-(4-fluorophenyl)-4-oxo-3,4-dihydrothieno[2,3-d]pyrimidin-2-ylsulfanyl]acetic acid N′-methylhydrazide], over 20 µM; with `CNC(=O)CSc1nc2scc(-c3ccc(F)cc3)c2c(=O)n1-c1ccc(F)cc1` [986-52, 2-[3,5-Bis-(4-fluorophenyl)-4-oxo-3,4-dihydrothieno[2,3-d]pyrimidin-2-ylsulfanyl]-N-methylacetamide], over 20 µM.
In test [2], `NC(=O)CSc1nc2scc(-c3ccccc3F)c2c(=O)n1-c1cccc(F)c1` [986-53, 2-[3-(3-Fluorophenyl)-5-(2-fluorophenyl)-4-oxo-3,4-dihydrothieno[2,3-d]pyrimidin-2-ylsulfanyl]acetamide] displayed an IC50 of over 10 µM.
Still for that read-out and setting: with `O=C(O)CSc1nc2scc(-c3ccc(F)cc3)c2c(=O)n1-c1ccc(F)cc1` [986-54, [3,5-Bis-(4-fluorophenyl)-4-oxo-3,4-dihydrothieno[2,3-d]pyrimidin-2-ylsulfanyl]acetic acid] the figure was over 20 µM; with `O=C(CSc1nc2scc(-c3ccc(F)cc3)c2c(=O)n1-c1ccc(F)cc1)NO` [986-55, 2-[3,5-Bis-(4-fluorophenyl)-4-oxo-3,4-dihydrothieno[2,3-d]pyrimidin-2-ylsulfanyl]-N-hydroxyacetamide], over 20 µM.
The same measure, in the same setting: for `NCC(=O)CSc1nc2scc(-c3ccccc3)c2c(=O)n1-c1cccc(F)c1` [986-56, 2-(3-Amino-2-oxo-propylsulfanyl)-3-(3-fluorophenyl)-5-phenyl-3H-thieno[2,3-d]pyrimidin-4-one hydrochloride] the value was 5.3 µM.
Same read-out and setting: for `CCOC(=O)CSc1nc2scc(-c3ccccc3)c2c(=O)n1-c1ccc(F)cc1` [986-58, [3-(4-Fluorophenyl)-4-oxo-5-phenyl-3,4-dihydrothieno[2,3-d]pyrimidin-2-ylsulfanyl]acetic acid ethyl ester] the value was over 20 µM.

Usually IC50 stands for the concentration that inhibits the measured activity by half.
